Data reported in PMC5478869, “New Hydroxycinnamic Acid Esters as Novel 5-Lipoxygenase Inhibitors That Affect Leukotriene Biosynthesis” (Mediators of Inflammation, 2017).

Key:
[1] = test system: arachidonic acid release; conditions: cited from earlier work
[2] = target: T1, 5-LO (Homo sapiens, UniProt P09917); assay: Biosynthesis of 5-LO products by thapsigargin-stimulated PMNL; type: cell-based; set-up: endogenous in cells; host or cells: human polymorphonuclear leukocytes (PMNL) isolated from whole blood; conditions: freshly isolated human PMNL, 5 min preincubation, 1 μM thapsigargin 15 min; 95% CI in brackets; read-out: IC50 (95% CI) for the inhibition of 5-LO product biosynthesis in human PMNL
T1 sequence (P09917 1-674): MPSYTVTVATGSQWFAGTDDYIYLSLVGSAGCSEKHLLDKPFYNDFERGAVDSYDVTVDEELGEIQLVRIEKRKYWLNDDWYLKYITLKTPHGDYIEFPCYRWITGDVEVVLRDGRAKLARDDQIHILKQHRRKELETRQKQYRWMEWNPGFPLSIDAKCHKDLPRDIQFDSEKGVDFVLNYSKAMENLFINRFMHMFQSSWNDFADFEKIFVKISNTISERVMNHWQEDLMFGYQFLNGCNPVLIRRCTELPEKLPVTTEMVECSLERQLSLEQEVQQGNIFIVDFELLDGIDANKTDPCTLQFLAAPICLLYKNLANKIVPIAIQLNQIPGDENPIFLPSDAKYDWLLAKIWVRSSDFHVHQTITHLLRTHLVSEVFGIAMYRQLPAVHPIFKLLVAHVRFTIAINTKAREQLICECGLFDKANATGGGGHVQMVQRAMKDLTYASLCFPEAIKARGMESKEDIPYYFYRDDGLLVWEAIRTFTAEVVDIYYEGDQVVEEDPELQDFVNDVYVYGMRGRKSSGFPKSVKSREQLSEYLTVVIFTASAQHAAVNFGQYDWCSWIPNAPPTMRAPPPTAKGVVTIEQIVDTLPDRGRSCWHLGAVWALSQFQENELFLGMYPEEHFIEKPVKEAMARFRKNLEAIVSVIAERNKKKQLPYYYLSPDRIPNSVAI
Description: Polymorphonuclear leukocytes (PMNL) were isolated as previously described. Briefly, whole blood was collected (with anticoagulant citrate dextrose (ACD)) and then centrifuged at 500 g for 10 min. Platelet-rich plasma (PRP) was set aside for platelet isolation (see below), and erythrocytes were removed by dextran sedimentation. After a centrifugation step at 900 g × 20 min at room temperature on a lymphocyte separation medium cushion (density, 1.077 g/ml) (Wisent), PMNL were obtained (>96%) followed by hypotonic lysis of the remaining erythrocytes. PMNL were counted and resuspended at 10^7 cells/ml in HBSS supplemented with 1.6 mM CaCl2. PRP was processed as previously described for platelet isolation. Briefly, PRP was centrifuged at 400 g for 2 min at room temperature to remove the remaining erythrocytes. The supernatant was then centrifuged at 1300g for 10 min to pellet platelets. Cells were resuspended in Tyrode Buffer pH 7.4 (134 mM NaCl, 2.9 mM KCl, 0.34 mM Na2HPO4, 12 mM NaHCO3, 20 mM HEPES, 1 mM MgCl2, 5 mM glucose, and 0.5 mg/ml BSA) at 3 × 10^8 cells/ml in the presence of 5 mM CaCl2.
Suspended PMNL (10^7 cells/ml) were incubated at 37°C with adenosine deaminase (0.3 U/ml, Sigma-Aldrich) and test compounds at indicated concentrations 5 min before stimulation. To initiate stimulation, 1 μM of thapsigargin (Sigma-Aldrich) was added to cells which were then incubated for 15 min at 37°C [31]. Two volumes of MeOH:MeCN (1 : 1) containing the internal standard PGB2 (100 ng/ml) was then added, and samples were processed for RP-HPLC analysis as described above.
Statistical analysis and graph design were performed with GraphPad Prism 5 software (GraphPad Software, San Diego, California). IC50 values were calculated from a sigmoidal concentration-response curve-fitting model and are expressed as means with 95% confidence intervals. All other data are expressed as mean ± SEM. One-way ANOVA with Dunnett's multiple comparison test (p < 0.05) were performed to determine significant difference from controls.
Figure 2 Effect of the test compounds on the biosynthesis of 5-LO products in transfected HEK293 cells (a) and thapsigargin-stimulated PMNL (b). (a) HEK293 cells expressing both 5-LO and FLAP were incubated in presence of the indicated compounds (1 μM) or their diluent (control, 0.5% DMSO) for 5 min, then biosynthesis of 5-LO products was initiated with the addition of 10 μM calcium ionophore A23187 and 10 μM arachidonic acid for 15 min. After stimulation, reactions were stopped and samples were processed for analysis of 5-LO products by RP-HPLC. Total 5-LO products measured represent the sum of LTB4, its trans isomers, and 5-hydroxyeicosatetraenoic acid. (b) Freshly isolated human PMNL were incubated in presence of test compounds (or their diluent control, DMSO 0.5%) at the indicated concentrations for 5 min. Biosynthesis of the 5-LO products was initiated with the addition of 1 μM of thapsigargin, followed by a 15 min incubation period at 37°C. The stimulation was then stopped and samples were processed for RP-HPLC analysis and total 5-LO products quantification. Total 5-LO products measured represent the sum of LTB4, its trans isomers, 20-COOH- and 20-OH-LTB4 and 5-hydroxyeicosatetraenoic acid. Data are expressed as means ± SEM of at least 3 independent experiments. ^∗Different from control, as determined by one-way ANOVA with Dunnett's multiple comparison test (p < 0.05).

[3] = test system: PMNL; assay: Annexin V labelling of PMNL (early apoptosis); type: cell-based, human; conditions: 20 min incubation at 37°C
Source text: A positive control with 10% EtOH is shown to validate the assay.

Row | Compound | Inhibition of liberation of cellular arachidonic acid (previously shown) [1] | IC50 [2] [µM] | Induction of early apoptosis of PMNL (annexin V labelling) [3]
1 | O=C(/C=C/c1ccc(O)c(O)c1)OCCc1ccccc1 [CAPE (2), Caffeic acid phenethyl ester, reference compound] | previously shown to inhibit the liberation of cellular arachidonic acid | 0.79 | –
2 | C=C(C)CCOC(=O)/C=C/c1ccc(O)c(O)c1 [Compound 9] | – | 0.87 | –
3 | O=C(/C=C/c1ccc(O)c(O)c1)OCCCc1ccccc1 [Compound 13] | – | 0.49 | did not induce early apoptosis of PMNL
4 | O=C(/C=C/c1ccc(O)c(O)c1)OCCc1ccc(F)cc1 [Compound 14] | – | 1.01 | –
5 | Cc1ccc(CCOC(=O)/C=C/c2ccc(O)c(O)c2)cc1 [Compound 15] | – | 1.04 | –
6 | COc1ccc(CCOC(=O)/C=C/c2ccc(O)c(O)c2)cc1 [Compound 16] | – | 1.29 | –
7 | O=C(/C=C/c1ccc(O)c(O)c1)OCC(c1ccccc1)c1ccccc1 [Compound 19] | – | 0.53 | –
